The results in this text go back to US20240408093A1, “HETEROBIFUNCTIONAL COMPOUNDS AND THEIR USE IN TREATING DISEASE” (HALDA THERAPEUTICS OPCO, INC., priority 2022, published 2024).

Like-named read-outs stand apart in the source and are kept apart here. Where only a bound is given, the exact number is not on record here.

In assay [1] the test system is GSPT1. Description: Payload release assay (DC50 readout), GSPT1 degradation in the presence of recombinant target protein. In kind it is cell-based. To be noted: I-series compounds (GSPT1 readout inferred). How it is done:
Exemplary compounds were tested for ability to cause degradation of CCNK or GSPT1 in the presence of recombinant target protein.
HEK293 LgBiT/GSPT1 HiBiT CRISPR Knock-in cells (Promega) were cultured in DMEM (Gibco 11995), supplemented with 10% Heat-inactivated FBS (Gibco A38400-01) and 1% Penicillin/Streptomycin (Gibco 15140-122) and 200 Vg/ml Hygromycin B (Gibco 10-687-010) at 37° C. with 5% CO2 in a humidified tissue culture incubator. HEK293 LgBiT/CCNK HiBiT cells (in-house, described above) were cultured in DMEM (Gibco 11995), supplemented with 10% Heat-inactivated FBS (Gibco A38400-01) and 1% Penicillin/Streptomycin (Gibco 15140-122) 200 Vg/ml Hygromycin B (Gibco 10-687-010), and 1 Vg/ml Puromycin Dihydrochloride (Thermo A1113803) at 37° C. with 5% CO2 in a humidified tissue culture incubator. Cells were seeded (1000 cells/well for HEK293 LgBiT/GSPT1 HiBiT cells or 3000 cells/well for HEK293 LgBiT/CCNK HiBiT cells) 384-well, tissue culture-treated white plates (Perkin Elmer 6007680) in 10 μL media lacking selection for 18-24 hours. Plates were spun at 300 g for 30 seconds and stored in the incubator overnight. After 24 hours, a 5 μL aliquot of recombinant target protein (final concentration of either 5 μM KRAS amino acids 1-169, C51S, C80L, C118S, G12C or 3 μM EGFR amino acids 696-1022 or 3 μM EGFR amino acids 696-1022, T790M, L858R) was added to wells, followed immediately by a 5 μL aliquot of 4× compound-containing medium supplemented with Endurazine Substrate (Promega N2570) was added in each well, at a final top concentration of 10 μM test compound and 0.5× Endurazine, with 4-fold dilutions, using DMSO alone as a negative control. Plates were then spun at 300×g for 3 minutes again and cultured at 37° C. with 5% CO2. After 6 hours the plate was read on Envision MultiMode Plate Reader 2105 (Perkin Elmer) to measure luminescence signal. Data was normalized to DMSO treated cell wells. A four-parameter non-linear regression curve fit was applied to dose-response data in Prism to determine the half maximal growth inhibitory concentration (GI50) of each compound.

Assay [2] concerns the target KRAS G12C (Homo sapiens, UniProt P01116, G12C). Description: KRAS G12C cellular target engagement assay (SW1573 cells). In kind it is cell-based. Set-up: host or cells: SW1573. To be noted: 17 hours, read-out: TE50 (the source's name). How it is done: SW1573 cells (ATCC CRL-2170) were cultured in RPMI 1640 (Gibco A1049101), supplemented with 10% Heat-inactivated FBS (Gibco Cat. #A38400-01) and 1% Penicillin/Streptomycin (Gibco Cat. #15140-122) in an incubator set at 37° C. and 5% CO2. Cells were seeded at 100,000 cells/ml in 1 ml of complete media in a 24-well, tissue culture-treated plate (Falcon 353226) and incubated overnight. Cells were treated with increasing concentrations of compound and let incubate at 37C and 5% CO2 for 17 hours, after which media was aspirated and cells were lysed in 75 uL RIPA Lysis and Extraction Buffer (Thermo 89901) supplemented with 5 mM MgCl2, Protease and Phosphatase inhibitor cocktail (Thermo 1861281), and Universal Nuclease (Thermo 88700). Plates with RIPA were shaken at 4° C. at 600 rpm for 15 min. After shaking samples, they were collected and spun down at 21,000 g for 15 min at 4° C. Following centrifugation, ˜10 ug of lysate was added to Laemmli Sample Buffer (Bio-Rad 1610747) plus 10% beta-mercaptoethanol, boiled for 15 minutes at 65° C. and loaded onto 12% Mini-PROTEAN TGX™ Precast Protein Gels (Bio-Rad). Protein was transferred to a nitrocellulose membrane (Thermo LC2000) using the iBlot 2 Dry Blotting System (Thermo). After transfer, membranes were washed in 1× TBST (Bioland Scientific LLC TBST0103) 3× for 5 min. Following the wash, blocking buffer (Rockland MB-070) was added for 1 hour at room temperature. Primary antibodies against KRAS (LifeSpan Bio LS-C175665) and actin (Cell Signaling Technology 8457) were added overnight at 4° C. Membranes were then washed again 3× for 5 min in 1× TBST. Secondary antibodies (LI-COR 926-68072 and 926-68073) were added and shaken for 1 hr at room temperature. Membranes were then washed 3× for 5 min in 1×TBST and developed. Membranes were placed on an Odyssey imager (LI-COR).

[3] abbreviates: 0 μM recombinant KRAS G12C, read-out: DC50 at 0 μM KRAS G12C.
The mark [4] stands for this setting: 5 μM recombinant KRAS G12C, read-out: DC50 at 5 μM KRAS G12C.

Sequence of KRAS G12C (P01116 1-188 isoform P01116-2 G12C): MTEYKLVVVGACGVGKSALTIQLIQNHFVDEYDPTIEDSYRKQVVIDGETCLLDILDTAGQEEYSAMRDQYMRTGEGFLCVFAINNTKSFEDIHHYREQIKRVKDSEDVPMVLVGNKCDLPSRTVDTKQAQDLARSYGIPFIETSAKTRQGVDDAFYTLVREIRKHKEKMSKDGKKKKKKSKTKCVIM

For the compound `C=C(COc1cc(NC(=O)NCc2ccc3c(c2)CN(C2CCC(=O)NC2=O)C3=O)cc(OC)c1)C(=O)N1CCN(c2nc(OC[C@@H]3CCCN3C)nc3c2CCN(c2cccc4cccc(Cl)c24)C3)C[C@@H]1CC#N` (stereo partly drawn) [Compound I-50], the DC50 in assay [1] (setting [3]) and in assay [1] (setting [4]) was 0.25 to 5 µM throughout. Moreover, the EC50 in assay [2] was in the range of 0.25 to 5 µM.
With `C=C(COc1ccc(Cl)cc1NC(=O)NCc1ccc2c(c1)CN(C1CCC(=O)NC1=O)C2=O)C(=O)N1CCN(c2nc(OC[C@@H]3CCCN3C)nc3c2CCN(c2cccc4cccc(Cl)c24)C3)C[C@@H]1CC#N` (stereo partly drawn) [Compound I-52], the half-maximal degradation concentration (DC50) is 0.25 to 5 µM in assay [1] (setting [3]) and less than 0.25 µM in assay [1] (setting [4]). The EC50 in assay [2] fell in the range of 0.25 to 5 µM.
For the compound `C=C(COc1cc(Cl)cc(NC(=O)NCc2ccc3c(c2)CN(C2CCC(=O)NC2=O)C3=O)c1)C(=O)N1CC2(CC(n3nc(-c4ccc5c(cnn5C)c4)c(-c4c(Cl)c(C)cc5[nH]ncc45)c3C)C2)C1` (stereo not drawn) [Compound I-56], the half-maximal degradation concentration (DC50) in assay [1] (setting [3]) and in assay [1] (setting [4]) was less than 0.25 µM throughout. The EC50 in assay [2] is 5 to 10 µM.
On to `C=C(CN(C)c1cccc(NC(=O)NCc2ccc3c(c2)CN(C2CCC(=O)NC2=O)C3=O)c1)C(=O)N1CCN(c2nc(OC[C@@H]3CCCN3C)nc3c2CCN(c2cccc4cccc(Cl)c24)C3)C[C@@H]1CC#N` (stereo partly drawn) [Compound I-58], for which the DC50 in assay [1] (setting [3]) was greater than 10 µM; in assay [1] (setting [4]) it was 5 to 10 µM. The EC50 in assay [2] was in the range of 5 to 10 µM.
As for `C=C(COc1cc(F)c(F)cc1NC(=O)NCc1ccc2c(c1)CN(C1CCC(=O)NC1=O)C2=O)C(=O)N1CCN(c2nc(OC[C@@H]3CCCN3C)nc3c2CCN(c2cccc4cccc(Cl)c24)C3)C[C@@H]1CC#N` (stereo partly drawn) [Compound I-62], the DC50 is 0.25 to 5 µM in assay [1] (setting [3]) and less than 0.25 µM in assay [1] (setting [4]). The EC50 in assay [2] lay within 0.25 to 5 µM.
As for `C=C(COc1ccccc1CNC(=O)NCc1ccc2c(c1)CN(C1CCC(=O)NC1=O)C2=O)C(=O)N1CCN(c2nc(OC[C@@H]3CCCN3C)nc3c2CCN(c2cccc4cccc(Cl)c24)C3)C[C@@H]1CC#N` (stereo partly drawn) [Compound I-63], the DC50 in assay [1] (setting [3]) and in assay [1] (setting [4]) was greater than 10 µM throughout. Further, the EC50 in assay [2] was in the range of 0.25 to 5 µM.
With `C=C(COc1cc(Cl)cc(NC(=O)NCc2cc3c(cc2F)C(=O)N(C2CCC(=O)NC2=O)C3)c1)C(=O)N1CCN(c2nc(OC[C@@H]3CCCN3C)nc3c2CCN(c2cccc4cccc(Cl)c24)C3)C[C@@H]1CC#N` (stereo partly drawn) [Compound I-64], the DC50 in assay [1] (setting [3]) was 0.25 to 5 µM; in assay [1] (setting [4]), less than 0.25 µM. The EC50 in assay [2] was 0.25 to 5 µM.
As to `C=C(COc1cc(Cl)c(OC)cc1NC(=O)NCc1ccc2c(c1)CN(C1CCC(=O)NC1=O)C2=O)C(=O)N1CC2(CC(n3nc(-c4ccc5c(cnn5C)c4)c(-c4c(Cl)c(C)cc5[nH]ncc45)c3C)C2)C1` (stereo not drawn) [Compound I-66], the 50% degradation concentration (DC50) in assay [1] (setting [3]) and in assay [1] (setting [4]) was less than 0.25 µM in each case. The EC50 in assay [2] lay in the range of 0.25 to 5 µM.
Take `C=C(COc1cc(NC(=O)NCc2ccc3c(c2)CN(C2CCC(=O)NC2=O)C3=O)cc(OC)c1)C(=O)N1CC2(CC(n3nc(-c4ccc5c(cnn5C)c4)c(-c4c(Cl)c(C)cc5[nH]ncc45)c3C)C2)C1` (stereo not drawn) [Compound I-67]: the DC50 in assay [1] (setting [3]) and in assay [1] (setting [4]) was 0.25 to 5 µM each time. Moreover, in assay [2], the EC50 lay in the range of 5 to 10 µM.
`C=C(COc1cc(NC(=O)NCc2ccc3c(c2F)CN(C2CCC(=O)NC2=O)C3=O)cc(C(F)(F)F)c1)C(=O)N1CC2(CC(n3nc(-c4ccc5c(cnn5C)c4)c(-c4c(Cl)c(C)cc5[nH]ncc45)c3C)C2)C1` (stereo not drawn) [Compound I-68]: the half-maximal degradation concentration (DC50) in assay [1] (setting [3]) and in assay [1] (setting [4]) was greater than 10 µM each time. Besides, the EC50 in assay [2] was 0.25 to 5 µM.
Regarding `C=C(COC(=O)c1c(C)csc1NC(=O)NCc1ccc2c(c1)CN(C1CCC(=O)NC1=O)C2=O)C(=O)N1CCN(c2nc(OC[C@@H]3CCCN3C)nc3c2CCN(c2cccc4cccc(Cl)c24)C3)C[C@@H]1CC#N` (stereo partly drawn) [Compound I-72, 2-[(2S)-4-[7-(8-chloro-1-naphthyl)-2-[[(2S)-1-methylpyrrolidin-2-yl]methoxy]-6,8-dihydro-5H-pyrido[3,4-d]pyrimidin-4-yl]-2-(cyanomethyl)piperazine-1-carbonyl]allyl 2-[[2-(2,6-dioxo-3-piperidyl)-1-oxo-isoindolin-5-yl]methylcarbamoylamino]-4-methyl-thiophene-3-carboxylate], the half-maximal degradation concentration (DC50) in assay [1] (setting [3]) was greater than 10 µM; in assay [1] (setting [4]), 0.25 to 5 µM. In addition, in assay [2], the EC50 is 5 to 10 µM.
`C=C(COC(=O)NCc1cc(Cl)cc(NC(=O)NCc2ccc3c(c2)CN(C2CCC(=O)NC2=O)C3=O)c1)C(=O)N1CCN(c2nc(OC[C@@H]3CCCN3C)nc3c2CCN(c2cccc4cccc(Cl)c24)C3)C[C@@H]1CC#N` (stereo partly drawn) [Compound I-73]: the 50% degradation concentration (DC50) in assay [1] (setting [3]) and in assay [1] (setting [4]) was less than 0.25 µM in each case. For the same compound, the EC50 in assay [2] is less than 0.25 µM.
With `C=C(COC(=O)NCCCc1cc(Cl)cc(NC(=O)NCc2ccc3c(c2)CN(C2CCC(=O)NC2=O)C3=O)c1)C(=O)N1CCN(c2nc(OC[C@@H]3CCCN3C)nc3c2CCN(c2cccc4cccc(Cl)c24)C3)C[C@@H]1CC#N` (stereo partly drawn) [Compound I-74], the results for the DC50 in assay [1] (setting [3]) and in assay [1] (setting [4]) were 0.25 to 5 µM and less than 0.25 µM, respectively. For the same compound, the EC50 in assay [2] was less than 0.25 µM.
Consider `C=C(COc1cc(NC(=O)NCc2ccc3c(c2)CN(C2CCC(=O)NC2=O)C3=O)cc(F)c1F)C(=O)N1CCN(c2nc(OC[C@@H]3CCCN3C)nc3c2CCN(c2cccc4cccc(Cl)c24)C3)C[C@@H]1CC#N` (stereo partly drawn) [Compound I-75], for which the DC50 in assay [1] (setting [3]) and in assay [1] (setting [4]) was greater than 10 µM throughout. Further, in assay [2], the EC50 lay within 5 to 10 µM.
For `C=C(COc1ccc(Cl)cc1NC(=O)NCc1ccc2c(c1)CN(C1CCC(=O)NC1=O)C2=O)C(=O)N1CC2(CC(n3nc(-c4ccc5c(cnn5C)c4)c(-c4c(Cl)c(C)cc5[nH]ncc45)c3C)C2)C1` (stereo not drawn) [Compound I-76], the DC50 in assay [1] (setting [3]) and in assay [1] (setting [4]) was less than 0.25 µM each time. In addition, the EC50 in assay [2] fell in the range of 0.25 to 5 µM.
On to `C=C(COc1cc(NC(=O)NCc2ccc3c(c2)CN(C2CCC(=O)NC2=O)C3=O)cc(C(F)(F)F)c1)C(=O)N1CC2(CC(n3nc(-c4ccc5c(cnn5C)c4)c(-c4c(Cl)c(C)cc5[nH]ncc45)c3C)C2)C1` (stereo not drawn) [Compound I-77], for which the DC50 in assay [1] (setting [3]) and in assay [1] (setting [4]) was less than 0.25 µM in each case. Further, in assay [2], the EC50 is 0.25 to 5 µM.
Turning to `C=C(COC(=O)NCCc1ccc(Cl)cc1NC(=O)NCc1ccc2c(c1)CN(C1CCC(=O)NC1=O)C2=O)C(=O)N1CCN(c2nc(OC[C@@H]3CCCN3C)nc3c2CCN(c2cccc4cccc(Cl)c24)C3)C[C@@H]1CC#N` (stereo partly drawn) [Compound I-78], the DC50 in assay [1] (setting [3]) and in assay [1] (setting [4]) was greater than 10 µM each time. Besides, the EC50 in assay [2] was less than 0.25 µM.
`C=C(COC(=O)NCCCc1ccc(Cl)cc1NC(=O)NCc1ccc2c(c1)CN(C1CCC(=O)NC1=O)C2=O)C(=O)N1CCN(c2nc(OC[C@@H]3CCCN3C)nc3c2CCN(c2cccc4cccc(Cl)c24)C3)C[C@@H]1CC#N` (stereo partly drawn) [Compound I-79]: the DC50 was 0.25 to 5 µM in assay [1] (setting [3]) and greater than 10 µM in assay [1] (setting [4]). Further, the EC50 in assay [2] is less than 0.25 µM.

As usually defined, the DC50 is the concentration giving 50% degradation.
